Measurements reported in patent publication US5798375A, “Treatment of arteriosclerosis and xanthoma” (Sankyo Company, Limited, priority 1995, dated 1998).

Columns and labels:
WHHL rabbits [1] = test: Example 2: incidence and degree of xanthoma of the four legs; type: in vivo, Male WHHL rabbits; set-up: Frequency of massive xanthoma: unit not given here
Procedure: (§1) Each test compound was administered for eight months to the rabbits in the form of an aqueous suspension (0.5% carboxymethylcellulose added). In the control group, a 0.5% carboxymethylcellulose solution only was administered.
The incidence and the degree of xanthoma of the four legs were measured.

WHHL rabbits [2] = test: Example 2: average thickening of intima in aorta; type: in vivo, Male WHHL rabbits; set-up: Average thickening of intima, Aortic Arch, percentage against the control group / Average thickening of intima, Total Aorta, percentage against the control group: concentration or dose not given beside the values
Procedure: as §1
The values actually measured are represented as the mean value plus or minus a standard error (μm). The numbers in parentheses represent the percentage intimal thickening against the control group. A significant difference was observed between Groups D and F at the aortic arch, and between Groups C and E and between Groups D and F over the total aorta (p<0.05) under the Mann-Whitney's U-Test.
The average thickening of the intima is calculated by the cross-sectional area of the aortic tunica intima one section from the arch and two sections from the thoracic and abdominal portions, divided by the length of the tunica media.

[3] = oral, eight months, control 100 (14/14), *p < 0.05, **p < 0.01 vs control

Structure (SMILES): CC[C@H](C)C(=O)O[C@H]1C[C@H](O)C=C2C=C[C@H](C)[C@H](CC[C@@H](O)C[C@@H](O)CC(=O)O)[C@H]21 [Pravastatin, sodium 1,2,6,7,8,8a-hexahydro-6,8-tetrahydroxy-2-methyl-1-naphthaleneheptanoate]
- Frequency of massive xanthoma (WHHL rabbits [1]; control 57, *p < 0.05, **p < 0.01 vs control): 42
- incidence of xanthoma (WHHL rabbits [1]; forelegs and hindlegs): slightly less frequent incidence of xanthoma
- Distribution of severity of lesion: (-) no lesions (WHHL rabbits [1]; number of legs, control 0): 3
- Distribution of severity of lesion: (+++) severe lesion (WHHL rabbits [1]; number of legs, control 6): 2
- Distribution of severity of lesion: (++) moderate lesion (WHHL rabbits [1]; number of legs, control 10): 8
- Distribution of severity of lesion: (+) slight lesion (WHHL rabbits [1]; number of legs, control 12): 11
- Incidence of xanthoma, Forelegs (WHHL rabbits [1]; [3]): 100%
- Incidence of xanthoma, Hindlegs (WHHL rabbits [1]; [3]): 75%
- Incidence of xanthoma, Total (WHHL rabbits [1]; oral, eight months, control 100 (28/28), *p < 0.05, **p < 0.01 vs control): 88%
- suppression of intimal thickening (WHHL rabbits [2]; combinations compared with Groups C and D): slight suppression of intimal thickening
- Average thickening of intima, Aortic Arch, percentage against the control group (WHHL rabbits [2]; number in parentheses): 82%
- Average thickening of intima, Total Aorta, percentage against the control group (WHHL rabbits [2]; number in parentheses): 82%
- Average thickening of intima in aorta, Total Aorta (WHHL rabbits [2]; oral, eight months, pravastatin 50, pioglitazone 20, Compound A 10 mg/kg, mean ± standard error, control 154 ± 33): 126 ± 22 μm
- Average thickening of intima in aorta, Aortic Arch (WHHL rabbits [2]; oral, eight months, pravastatin 50, pioglitazone 20, Compound A 10 mg/kg, mean ± standard error, control 237 ± 63): 194 ± 42 μm
